# Assay results reported in patent publication US6399782B1, “Benzimidazole inhibitors of fructose 1,6-bisphosphatase” (Metabasis Therapeutics, Inc., priority 1997, dated 2002).
# Target: T1, mouse liver FBPase (Mus musculus, UniProt Q9QXD6)
# T1 construct: This partially purified fraction was used for enzyme assays; from tissue; host or cells: mouse liver, 45-75% ammonium sulfate fraction
# T1 sequence (Q9QXD6 2-338 limits assumed): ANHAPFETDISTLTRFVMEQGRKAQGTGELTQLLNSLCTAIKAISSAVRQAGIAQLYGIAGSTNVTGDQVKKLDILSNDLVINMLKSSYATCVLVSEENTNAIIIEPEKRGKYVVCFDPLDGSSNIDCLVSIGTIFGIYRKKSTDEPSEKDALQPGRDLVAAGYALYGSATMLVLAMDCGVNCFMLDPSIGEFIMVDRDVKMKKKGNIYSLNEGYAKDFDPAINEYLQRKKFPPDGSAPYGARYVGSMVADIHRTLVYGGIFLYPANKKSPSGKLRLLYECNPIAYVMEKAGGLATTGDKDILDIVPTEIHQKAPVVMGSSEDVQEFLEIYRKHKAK
# Assay: Inhibition of mouse liver FBPase
# Assay type: biochemical
# Conditions: partially purified mouse liver fraction
# Protocol: Enzymatic activity was measured spectrophotometrically in reactions that coupled the formation of product (fructose 6-phosphate) to the reduction of dimethylthiazoldiphenyltetrazolium bromide (MTT) via NADP and phenazine methosulfate (PMS), using phosphoglucose isomerase and glucose 6-phosphate dehydrogenase as the coupling enzymes. Reaction mixtures (200 μl) were made up in 96-well microtitre plates, and consisted of 50 mM Tris-HCl, pH 7.4, 100 mM KCl, 5 mM EGTA, 2 mM MgCl2, 0.2 mM NADP, 1 mg/ml BSA, 1 mM MTT, 0.6 mM PMS, 1 unit/mL phosphoglucose isomerase, 2 units/mL glucose 6-phosphate dehydrogenase, and 0.150 mM substrate (fructose 1,6-bisphosphate). Inhibitor concentrations were varied from 0.01 μM to 10 μM.
# Mouse liver FBPase was obtained by homogenizing freshly isolated mouse liver in 100 mM Tris-HCl buffer, pH 7.4, containing 1 mM EGTA, and 10% glycerol. […] This fraction was redissolved in the homogenization buffer and desalted on a PD-10 gel filtration column (Biorad) eluted with same. This partially purified fraction was used for enzyme assays. Both rat liver and mouse liver FBPase were assayed as described for human liver FBPase.
structure (smiles),measurement,value
"Nc1c(F)ccc2c1nc(-c1ccc(P(=O)(O)O)o1)n2CC1CC1 [Compound 12.61, 4-Amino-5-fluoro-1-cyclopropylmethyl-2-(2-phosphono-5-furanyl)benzimidazole]",IC50,> 20 µM
